Values of other authors as cited in patent US7670624B2, “Gastrointestinal-specific multiple drug release system” (Astella Pharma Inc., priority 2004, dated 2010).
Where a name gives a salt, the structure may show the parent alone.

Conditions: in vivo

| t1/2 | Compound |
| --- | --- |
| 3 h | NC(N)=Nc1nc(CSCCC(N)=NS(N)(=O)=O)cs1 [Famotidine] |
| 9.5 h | CN(C)c1ccc(O)c2c1C[C@H]1C[C@H]3[C@H](N(C)C)C(O)=C(C(N)=O)C(=O)[C@@]3(O)C(O)=C1C2=O [Minocycline hydrochloride] |
